According to patent US4764618A, “Arginine derivatives and pharmaceutically acceptable acid addition salts thereof” (Mitsubishi Chemical Industries Limited, priority 1984, dated 1988):

Target: T1, trypsin (Bos taurus, UniProt P00760)
T1 sequence (P00760 24-246): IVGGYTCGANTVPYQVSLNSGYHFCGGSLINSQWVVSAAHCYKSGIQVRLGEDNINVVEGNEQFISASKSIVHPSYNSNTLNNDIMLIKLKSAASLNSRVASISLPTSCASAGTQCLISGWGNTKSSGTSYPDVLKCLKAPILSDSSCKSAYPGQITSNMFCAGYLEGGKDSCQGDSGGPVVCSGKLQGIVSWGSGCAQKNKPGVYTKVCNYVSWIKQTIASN
Test: Determination of Trypsin-Inhibiting Activity (chromogenic substrate S-2222)
Type: biochemical
Settings: inhibitor concentration giving 50% of ΔA/min (405 nm) without inhibitor; 33.3 μM S-2222, 0.1 M Tris-HCl pH 8.3, 37° C.; read-out: I50
Description: Trypsin-inhibiting activity of the arginine derivatives of this invention was determined by the method described below.
Determination of Trypsin-Inhibiting Activity
Trypsin activity is determined by measuring the rate of formation of para-nitroaniline from synthesized chromogenic substrate Jz-Ile-Glu(γ-OH and γ-OCH3)-Gly-Arg-pNA (S-2222)(benzoylisoleucylglutamyl(γ-OH:γ-OCH3 =1:1)glycylarginine p-nitroanilide) supplied by Kabi Diagnostica Inc. Three (3) ml of a reaction mixture containing 33.3 μM of S-2222 and 0.1 M Tris-HCl buffer solution (pH 8.3) is placed in a cell for spectrophotometry and the cell is placed in the thermostatic cell holder at 37° C. of a Hitachi 124 spectrophotometer. After the cell is kept at 37° C. for 3 minutes, 10 μl of a solution of trypsin dissolved in 0.001N HCl containing 0.05M CaCl2 is added, and increase in absorbance at 405 nm is continuously measured using a recorder to calculate ΔA/min at an initial portion. Various inhibitors in various concentrations are added and ΔA/min values are respectively measured. Data are plotted with the inhibitor concentration as abscissa and ΔA/min as ordinate. From the resulting graph the inhibitor concentrations which give ΔA/min corresponding to 50% of the ΔA/min value when no inhibitor is added are sought as I50.

Structure (SMILES) | IC50 [nM]
COc1cc2c(S(=O)(=O)N[C@@H](CCCNC(=N)N)C(=O)N3CCC(c4ccccc4)CC3)cccc2cc1C(=O)O [compound 50] | 450000
COc1ccc(N2CCN(C(=O)[C@H](CCCNC(=N)N)NS(=O)(=O)c3ccc4ccc(OC)cc4c3)CC2)cc1 [compound 28] | 2800
COc1cccc(C2CCN(C(=O)[C@H](CCCNC(=N)N)NS(=O)(=O)c3ccc4ccc(OC)cc4c3)CC2)c1 [compound 58] | 750
COc1ccc2ccc(S(=O)(=O)N[C@@H](CCCNC(=N)N)C(=O)N3CCN(c4ccccc4C)CC3)cc2c1 [compound 22] | 400
CCOC(=O)C1(c2ccccc2)CCN(C(=O)[C@H](CCCNC(=N)N)NS(=O)(=O)c2ccc3ccc(OC)cc3c2)CC1 [Run No. 54] | 12000
COc1ccc2ccc(S(=O)(=O)N[C@@H](CCCNC(=N)N)C(=O)N3CCN(c4ccccc4O)CC3)cc2c1 [compound 55] | 800
COc1ccc2ccc(S(=O)(=O)N[C@@H](CCCNC(=N)N)C(=O)N3CCN(c4ccccc4)CC3)cc2c1 [compound 7] | 1500
CCOC(=O)C1CC(c2ccccc2)CCN1C(=O)[C@H](CCCNC(=N)N)NS(=O)(=O)c1ccc2ccc(OC)cc2c1 (stereo partly shown) [Run No. 23] | 650
COc1ccc2ccc(S(=O)(=O)N[C@@H](CCCNC(=N)N)C(=O)N3CCC(c4cccc(C)c4)CC3)cc2c1 [compound 51] | 300
COc1ccc(S(=O)(=O)N[C@@H](CCCNC(=N)N)C(=O)N2CCC(c3ccccc3)CC2)c2ccccc12 [compound 29] | 2200
COc1ccc2ccc(S(=O)(=O)N[C@@H](CCCNC(=N)N)C(=O)N3CCC(c4ccc(C)cc4)CC3)cc2c1 [compound 53] | 370
COc1ccc2ccc(S(=O)(=O)N[C@@H](CCCNC(=N)N)C(=O)N3CCN(c4cc(Cl)cc(Cl)c4)CC3)cc2c1 [compound 45] | 1000
COc1ccc2ccc(S(=O)(=O)N[C@@H](CCCNC(=N)N)C(=O)N3CCN(c4cccc(C(F)(F)F)c4)CC3)cc2c1 [compound 46] | 1600
COc1ccc2ccc(S(=O)(=O)N[C@@H](CCCNC(=N)N)C(=O)N3CCN(c4ccccc4Cl)CC3)cc2c1 [compound 18] | 330
COc1ccc2ccc(S(=O)(=O)N[C@@H](CCCNC(=N)N)C(=O)N3CC[C@@H](c4ccccc4)C[C@@H]3C(=O)O)cc2c1 [compound 56] | 150
N=C(N)NCCC[C@H](NC(=O)c1cccc2ccccc12)C(=O)N1CCC(c2ccccc2)CC1 [compound 14] | 395000
COc1ccc2ccc(S(=O)(=O)N[C@@H](CCCNC(=N)N)C(=O)N3CCN(c4ccc(F)cc4)CC3)cc2c1 [compound 26] | 860
COc1ccc2ccc(S(=O)(=O)N[C@@H](CCCNC(=N)N)C(=O)N3CCC(c4ccccc4)CC3C(=O)O)cc2c1 (stereo partly shown) [compound 24] | 400
COc1cc2ccc(S(=O)(=O)N[C@@H](CCCNC(=N)N)C(=O)N3CCN(c4ccccc4)CC3)cc2cc1OC [compound 9] | 7800
COc1ccc2ccc(S(=O)(=O)N[C@@H](CCCNC(=N)N)C(=O)N3CCC(C(=O)Nc4ccccc4)CC3)cc2c1 [compound 33] | 3400

Structure (SMILES) | IC50 [nM]
COc1ccc2ccc(S(=O)(=O)N[C@@H](CCCNC(=N)N)C(=O)N3CCN(c4ccccc4OC)CC3)cc2c1 [compound 20] | 800
N=C(N)NCCC[C@H](NC(=O)c1ccc2ccccc2c1)C(=O)N1CCC(c2ccccc2)CC1 [compound 44] | 110000
COc1ccc2cc(S(=O)(=O)N[C@@H](CCCNC(=N)N)C(=O)N3CCC(c4ccccc4)CC3)cc(OC)c2c1 [compound 13] | 2250
COc1ccc2ccc(S(=O)(=O)N[C@@H](CCCNC(=N)N)C(=O)N3CC[C@H](c4ccccc4)C[C@H]3C(=O)O)cc2c1 [compound 57] | 1900
COc1ccc2ccc(S(=O)(=O)N[C@@H](CCCNC(=N)N)C(=O)N3CCC(Cc4ccccc4)CC3)cc2c1 [compound 25] | 600
COc1cc2ccc(S(=O)(=O)N[C@@H](CCCNC(=N)N)C(=O)N3CCC(Cc4ccccc4)CC3)cc2cc1OC [Run No. 4] | 3500
COc1ccc2ccc(S(=O)(=O)N[C@@H](CCCNC(=N)N)C(=O)N3CCC(Oc4ccccc4)CC3)cc2c1 [compound 43] | 25000
CC1CNc2c(cccc2S(=O)(=O)N[C@@H](CCCNC(=N)N)C(=O)N2CCN(c3ccccc3)CC2)C1 (stereo partly shown) [compound 6] | 10000
CCOC(=O)c1cc2cccc(S(=O)(=O)N[C@@H](CCCNC(=N)N)C(=O)N3CCC(c4ccccc4)CC3)c2cc1OC [Run No. 49] | 2100
Cc1ccc(S(=O)(=O)N[C@@H](CCCNC(=N)N)C(=O)N2CCN(c3ccccc3)CC2)cc1 [compound 8] | 74000
COc1ccc2ccc(S(=O)(=O)N[C@@H](CCCNC(=N)N)C(=O)N3CCC(c4ccccc4C)CC3)cc2c1 [compound 40] | 400
COc1ccc2ccc(S(=O)(=O)N[C@@H](CCCNC(=N)N)C(=O)N3CCC(C#N)(c4ccccc4)CC3)cc2c1 [compound 30] | 1300
CCOc1c(OC)ccc(S(=O)(=O)N[C@@H](CCCNC(=N)N)C(=O)N2CCC(c3ccccc3)CC2)c1OC [compound 19] | 2400
COc1ccc2ccc(S(=O)(=O)N[C@@H](CCCNC(=N)N)C(=O)N3CCC(c4ccc(Cl)cc4)CC3)cc2c1 [compound 41] | 460
COc1ccc(C2CCN(C(=O)[C@H](CCCNC(=N)N)NS(=O)(=O)c3ccc4ccc(OC)cc4c3)CC2)cc1 [compound 52] | 200
COc1ccc2ccc(S(=O)(=O)N[C@@H](CCCNC(=N)N)C(=O)N3CCC(C(C)=O)(c4ccccc4)CC3)cc2c1 [compound 27] | 35000
COc1ccc2ccc(S(=O)(=O)N[C@@H](CCCNC(=N)N)C(=O)N3CCN(c4ccc(Cl)cc4)CC3)cc2c1 [compound 16] | 690
COc1ccc2ccc(S(=O)(=O)N[C@@H](CCCNC(=N)N)C(=O)N3CCC(c4ccccc4OC)CC3)cc2c1 [compound 39] | 280
COc1cccc2cccc(S(=O)(=O)N[C@@H](CCCNC(=N)N)C(=O)N3CCC(c4ccccc4)CC3)c12 [compound 36] | 87000
COc1ccc2ccc(S(=O)(=O)N[C@@H](CCCNC(=N)N)C(=O)N3CCN(c4cccc(Cl)c4)CC3)cc2c1 [compound 17] | 380

The remaining lines, values ahead:

IC50 [nM] | Structure (SMILES)
230 | COc1ccc2ccc(S(=O)(=O)N[C@@H](CCCNC(=N)N)C(=O)N3CCC(c4ccccc4)CC3)cc2c1 [Run No. 2, 1-[N^2-(7-methoxy-2-naphthalenesulfonyl)-L-arginyl]-4-phenylpiperidine]
3200 | N=C(N)NCCC[C@H](NS(=O)(=O)c1ccc2ccccc2c1)C(=O)N1CCC(c2ccccc2)CC1 [compound 38]
1100 | N=C(N)NCCC[C@H](NS(=O)(=O)c1ccc2ccc(Cl)cc2c1)C(=O)N1CCC(c2ccccc2)CC1 [compound 48]
7700 | N=C(N)NCCC[C@H](NS(=O)(=O)c1cccc2c1CCCC2)C(=O)N1CCC(c2ccccc2)CC1 [compound 34]
2500 | N=C(N)NCCC[C@H](NS(=O)(=O)c1cccc2c(Cl)cccc12)C(=O)N1CCC(c2ccccc2)CC1 [compound 47]
2200 | N=C(N)NCCC[C@H](NS(=O)(=O)c1ccc2oc3ccccc3c2c1)C(=O)N1CCC(c2ccccc2)CC1 [compound 10]
22000 | Cc1ccc(S(=O)(=O)N[C@@H](CCCNC(=N)N)C(=O)N2CCC(c3ccccc3)CC2)cc1 [Run No. 5]
11000 | N=C(N)NCCC[C@H](NS(=O)(=O)c1cccc2ccccc12)C(=O)N1CCC(c2ccccc2)CC1 [compound 37]
41200 | COc1ccc2cc(S(=O)(=O)N[C@@H](CCCNC(=N)N)C(=O)N3CCC(c4ccccc4)CC3)ccc2c1 [compound 31]
6700 | N=C(N)NCCC[C@H](NS(=O)(=O)c1ccc2c(c1)CCCC2)C(=O)N1CCC(c2ccccc2)CC1 [compound 35]
2100 | CC1CNc2c(cccc2S(=O)(=O)N[C@@H](CCCNC(=N)N)C(=O)N2CCC(c3ccccc3)CC2)C1 (stereo partly shown) [Run No. 1]
3200 | N=C(N)NCCC[C@H](NS(=O)(=O)c1ccc2c(c1)Cc1ccccc1-2)C(=O)N1CCC(c2ccccc2)CC1 [compound 11]
37000 | N=C(N)NCCC[C@H](NS(=O)(=O)c1ccc2ccc(O)cc2c1)C(=O)N1CCC(c2ccccc2)CC1 [compound 42]
9000 | Cc1cc2ccc(S(=O)(=O)N[C@@H](CCCNC(=N)N)C(=O)N3CCC(c4ccccc4)CC3)cc2cc1C [compound 32]
6000 | N=C(N)NCCC[C@H](NS(=O)(=O)c1ccc2cc3c(cc2c1)OCCO3)C(=O)N1CCC(c2ccccc2)CC1 [compound 15]
900 | CCOc1ccc2ccc(S(=O)(=O)N[C@@H](CCCNC(=N)N)C(=O)N3CCC(c4ccccc4)CC3)cc2c1 [compound 21]
2400 | COc1cc2ccc(S(=O)(=O)N[C@@H](CCCNC(=N)N)C(=O)N3CCC(c4ccccc4)CC3)cc2cc1OC [Run No. 3]
1000 | Cc1ccc2ccc(S(=O)(=O)N[C@@H](CCCNC(=N)N)C(=O)N3CCC(c4ccccc4)CC3)cc2c1 [compound 12]
